Results on 13 compounds are retold here after ChEMBL document CHEMBL4828768, “Talaromynoids A-I, Highly Oxygenated Meroterpenoids from the Marine-Derived Fungus Talaromyces purpureogenus SCSIO 41517 and Their Lipid Accumulation Inhibitory Activities” (J Nat Prod, 2021).

A word on the inhibition: it is the relative decrease from the control value, in per cent. What is called IC50 is the concentration that gives 50% inhibition.

The target of assay [1] is T1, Tyrosine-protein phosphatase non-receptor type 11 (Homo sapiens) (UniProt Q06124).
T1 sequence (whole entry): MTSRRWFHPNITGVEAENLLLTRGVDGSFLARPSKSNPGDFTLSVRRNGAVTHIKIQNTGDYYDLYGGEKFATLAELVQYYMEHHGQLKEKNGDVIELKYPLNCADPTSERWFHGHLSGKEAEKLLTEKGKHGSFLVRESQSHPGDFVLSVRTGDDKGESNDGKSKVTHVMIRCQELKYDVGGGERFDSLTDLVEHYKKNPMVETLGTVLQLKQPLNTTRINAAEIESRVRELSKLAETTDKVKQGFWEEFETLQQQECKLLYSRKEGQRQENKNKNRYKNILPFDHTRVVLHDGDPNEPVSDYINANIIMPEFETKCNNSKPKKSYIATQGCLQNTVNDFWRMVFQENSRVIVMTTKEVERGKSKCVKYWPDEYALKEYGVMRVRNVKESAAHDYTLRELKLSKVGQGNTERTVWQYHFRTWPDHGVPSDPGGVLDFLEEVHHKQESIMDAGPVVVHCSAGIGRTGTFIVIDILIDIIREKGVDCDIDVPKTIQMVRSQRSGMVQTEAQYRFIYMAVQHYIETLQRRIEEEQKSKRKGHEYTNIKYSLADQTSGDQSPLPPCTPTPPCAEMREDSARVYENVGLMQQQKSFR
Kind of assay: Inhibition of human recombinant SHP2 expressed in Escherichia coli assessed as inhibition of phosphatase activity by measuring p-nitrophenyl phosphate at 6.7 microg/ml measured after 60 mins. The following applies: dose 6.7 µg/ml.

Assay [2] has as its target T2, Tyrosine-protein phosphatase non-receptor type 1 (Homo sapiens) (UniProt P18031).
T2 sequence (whole entry): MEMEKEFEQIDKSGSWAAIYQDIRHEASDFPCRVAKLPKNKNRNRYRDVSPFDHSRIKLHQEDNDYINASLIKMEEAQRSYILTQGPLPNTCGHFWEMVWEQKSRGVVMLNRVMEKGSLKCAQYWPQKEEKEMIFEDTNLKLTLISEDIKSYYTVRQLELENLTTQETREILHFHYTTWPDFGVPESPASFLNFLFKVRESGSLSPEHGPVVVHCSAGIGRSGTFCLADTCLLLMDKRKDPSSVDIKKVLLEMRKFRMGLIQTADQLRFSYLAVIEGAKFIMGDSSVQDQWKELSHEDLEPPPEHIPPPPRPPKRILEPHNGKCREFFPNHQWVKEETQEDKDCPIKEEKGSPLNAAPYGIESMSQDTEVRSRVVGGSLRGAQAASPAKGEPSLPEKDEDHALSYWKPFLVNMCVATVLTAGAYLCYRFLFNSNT
In words: Inhibition of human recombinant PTP1B expressed in Escherichia coli assessed as inhibition of phosphatase activity by measuring p-nitrophenyl phosphate at 6.7 microg/ml measured after 60 mins. The following applies: dose 6.7 µg/ml.

The target in assay [3] is T3, M-phase inducer phosphatase 2 (Homo sapiens) (UniProt P30305).
T3 sequence (whole entry): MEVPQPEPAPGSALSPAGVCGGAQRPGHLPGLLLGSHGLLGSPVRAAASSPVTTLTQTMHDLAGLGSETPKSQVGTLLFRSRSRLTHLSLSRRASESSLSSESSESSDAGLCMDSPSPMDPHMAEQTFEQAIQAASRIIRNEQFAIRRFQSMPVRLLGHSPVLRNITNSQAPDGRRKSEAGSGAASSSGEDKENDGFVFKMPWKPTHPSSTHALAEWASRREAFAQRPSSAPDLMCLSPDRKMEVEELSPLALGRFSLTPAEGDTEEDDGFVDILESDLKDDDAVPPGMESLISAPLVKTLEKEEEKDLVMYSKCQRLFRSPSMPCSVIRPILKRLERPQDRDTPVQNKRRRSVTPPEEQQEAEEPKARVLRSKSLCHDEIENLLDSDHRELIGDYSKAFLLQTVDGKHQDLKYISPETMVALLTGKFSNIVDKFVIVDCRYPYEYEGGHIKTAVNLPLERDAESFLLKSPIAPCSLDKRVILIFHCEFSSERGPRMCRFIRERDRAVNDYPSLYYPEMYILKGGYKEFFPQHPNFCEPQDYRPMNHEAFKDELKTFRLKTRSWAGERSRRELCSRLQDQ
Kind of assay: Inhibition of human recombinant CDC25B expressed in Escherichia coli assessed as inhibition of phosphatase activity by measuring p-nitrophenyl phosphate at 6.7 microg/ml measured after 60 mins. The note with it: dose 6.7 µg/ml.

A short description of assay [4]: Reduction in intracellular triglyceride accumulation in mouse 3T3-L1 cells measured after 3 days. The class given is functional, cell-based. The following applies: 3T3-L1, 72 h.
Another assay deals with 3T3-L1. Kind of assay: (§1) Reduction in intracellular triglyceride accumulation in mouse 3T3-L1 cells at 10 uM measured after 3 days. The class given is functional. The note with it: time 3.0 day.
The target in assay [5] is T4, M-phase inducer phosphatase 2 (Homo sapiens, UniProt P30305).
T4 sequence (P30305 whole entry): T3 sequence (whole entry)
Kind of assay: Inhibition of human recombinant CDC25B expressed in Escherichia coli assessed as inhibition of phosphatase activity by measuring p-nitrophenyl phosphate measured after 60 mins.

A short description of assay [6]: as §1. It counts as functional. Also noted: scale not given: the % may be the effect or the level left. The following applies: time 3 day.

The structures appear in SMILES notation. Activity calls are given as the source filed them. No cut-off for these calls is given here.

As to `COC(=O)[C@]12[C@@H]3[C@H]4OC(=O)[C@]3(C)C[C@H]3C(C)=C5CC(=O)OC(C)(C)[C@@]56O[C@H]6[C@H](O[C@]1(O)[C@H](C)O4)[C@@]32C`, the inhibition in assay [1], in assay [2] and in assay [3] was under 60% each time.
Turning to `COC(=O)[C@]12C(=O)[C@@](C)(O)C(=O)[C@](C)(C[C@H]3C(C)=C4CC(=O)OC(C)(C)C4=CC[C@@]31C)[C@]21CO1`, the IC50 in assay [4] was determined as 43 µM. Besides, the inhibition in assay [1], in assay [2] and in assay [3] was under 60% each time. In addition, the result in the assay on 3T3-L1 was Active.
Compound `COC(=O)CC1=C(C)[C@H]2C[C@]3(C)C(=O)O[C@@H]4O[C@H](C)[C@]5(O)O[C@@H]([C@H]6O[C@@]16C(C)(C)O)[C@@]2(C)[C@@]51C(=O)O[C@@]413` yielded an IC50 in assay [4] of 29 µM. Further, the inhibition in assay [1], in assay [2] and in assay [3] was under 60% in each case. In the assay with 3T3-L1, the outcome was Active.
As for `COC(=O)[C@]12[C@@H]3[C@@H](O)O[C@@H](C)[C@@]14OC(=O)[C@]3(C)C[C@H]1C(C)=C3CC(=O)OC(C)(C)[C@@]35O[C@H]5[C@H](O4)[C@@]12C`, half-maximal inhibition in assay [4] (IC50) required 21 µM. The inhibition in assay [1], in assay [2] and in assay [3] was under 60% each time. The outcome in the assay with 3T3-L1 was Active.
As to `CC1=C2CC(=O)OC(C)(C)[C@]23O[C@@H]3[C@@H]2O[C@@]3(O)[C@@H](C)O[C@H]4OC(=O)[C@]5(C)C[C@H]1[C@]2(C)[C@@]31C(=O)O[C@@]415`, the IC50 in assay [4] was determined as 37 µM. Further, the inhibition in assay [1], in assay [2] and in assay [3] was under 60% throughout. For the same compound, the outcome in the assay with 3T3-L1 was Active.
Regarding `COC(=O)CC1=C(C)[C@@H]2C[C@@]3(C)C(=O)O[C@H]4O[C@@H](C)[C@@]5(O)O[C@@H]([C@@H]6O[C@]16C(C)(C)O)[C@]2(C)[C@@]5(C(=O)OC)[C@]43O`, the inhibition in assay [1], in assay [2] and in assay [3] was under 60% each time.
As to `COC(=O)[C@]12C3=C(C)O[C@@H]4OC(=O)[C@](C)(C[C@H]5C(C)=C6CC(=O)O[C@@]6(C(C)(C)O)[C@@H](C[C@@]51C)O3)[C@@H]42`, the inhibition in assay [1], in assay [2] and in assay [3] was under 60% throughout.
As to `COC(=O)[C@@]12[C@@]3(C)[C@@H]4C=C5C(=CC(=O)OC5(C)C)[C@@](C)(O)[C@@H]3C[C@@]3(C)C(=O)O[C@@H](O[C@@H](C)[C@@]1(O)O4)[C@@]23O`, the inhibition in assay [1] and in assay [2] was under 60% each time. The IC50 in assay [5] turned out to be 13 µM. Further, the inhibition entry in assay [3] is “Active”.
In the case of `COC(=O)[C@]12[C@@H]3[C@H]4OC(=O)[C@]3(C)CC3=C(C)C5=C(C[C@H](O[C@]1(O)[C@H](C)O4)[C@@]32C)C(C)(C)OC(=O)C5`, the inhibition in assay [1], in assay [2] and in assay [3] was under 60% each time.
For the compound `COC(=O)[C@]12C(=O)[C@H](C)O[C@@H]3OC(=O)[C@](C)(C[C@H]4C(C)=C5CC(=O)OC(C)(C)C5=CC[C@@]41C)[C@@H]32` [BERKELEYACETAL A], the inhibition in assay [1], in assay [2] and in assay [3] was under 60% in each case. In assay [6], this compound came in with an Activity of under 60%.
Take `COC(=O)CC1=C(C)[C@@H]2C[C@@]3(C)C(=O)O[C@H]4O[C@@H](C)[C@@]5(O)O[C@@H]([C@@H]6O[C@]16C(C)(C)O)[C@]2(C)[C@@]5(C(=O)OC)[C@H]43`: the inhibition in assay [1], in assay [2] and in assay [3] was under 60% throughout.
`CC1=C2CC(=O)OC(C)(C)C2=CC[C@@]2(C)[C@H]1C[C@@](C)(C(=O)O)[C@]13COC(=O)[C@@]12C(=O)[C@H](C)O3`: the inhibition in assay [1], in assay [2] and in assay [3] was under 60% in each case. This compound also registered an Activity in assay [6] of under 60%.
In the case of `COC(=O)[C@]12C3=C(C)O[C@@H]4OC(=O)[C@](C)(C[C@H]5C(C)=C6CC(=O)O[C@@]6(C(C)(C)O)[C@H](O3)[C@H](O)[C@@]51C)[C@@H]42`, the inhibition in assay [1], in assay [2] and in assay [3] was under 60% in each case.
